Measurements published in patent publication US20150344466A1 (SUMITOMO CHEMICAL COMPANY, LIMITED, priority 2013, published 2015).

Columns and labels:
Format in all cases: in vivo
[1] = tested on: Culex pipiens pallens; experiment: Knockdown spray test on adult Culex pipiens pallens (Test Example 4); conditions: topical, 0.25 h, active ingredient 0.1% w/v, 0.5 ml sprayed, within 15 minutes, read-out: knockdown rate of the test insects within 15 minutes
Method: Ten adult Culex pipiens pallens were released in a polyethylene cup (bottom diameter: 10.6 cm), and the cup was covered with a 16-mesh nylon gauze. The polyethylene cup was placed on the bottom of a test chamber (bottom: 46 cm×46 cm, height: 70 cm). From a height of 30 cm above the upper surface of the polyethylene cup, 0.5 ml of the test drug solution was sprayed using a spray gun (a spraying pressure of 0.4 kg/cm^2). Immediately after spraying, the cup was taken out from the test chamber, and after 2 minutes, 5 minutes and 15 minutes, the number of knocked-down insects was counted to obtain a knockdown rate. The knockdown rate was calculated by the following equation.
(§1) Knockdown Rate (%)=(Number of Knocked-down Insects/Number of Tested Insects)×100

[2] = tested on: Musca domestica; experiment: Filter paper/sucrose bait death rate test on Musca domestica (Test Example 5); conditions: female imagoes of Musca domestica, 0.7 ml on filter paper, after 24 hours
Method: A filter paper having a diameter of 5.5 cm was spread on the bottom of a polyethylene cup having the same diameter and 0.7 ml of the test drug solution was added dropwise onto the filter paper, and 30 mg of sucrose was uniformly placed as bait.
Into the polyethylene cup, 10 female imagoes of Musca domestica were released, and the cup was sealed with a lid. After 24 hours, the life and death of Musca domestica was examined, and the death rate was calculated. The death rate was calculated by the following equation.
Death rate (%)=(Number of dead insects/Number of tested insects)×100

[3] = tested on: Blattella germanica; experiment: Knockdown spray test on Blattella germanica, 0.1% w/v oil formulation (Test Example 2); conditions: topical, 0.25 h, active ingredient 0.1% w/v, 1.5 ml sprayed, within 15 minutes, read-out: knockdown rate of the test insects within 15 minutes
Method: Ten Blattella germanica (5 males and 5 females) were released in a test container (8.75 cm in diameter, 7.5 cm in height, and the bottom made of 16 mesh metallic wire) with the inner wall on which butter was applied, and the container was placed on the bottom of a test chamber (bottom: 46 cm×46 cm, height: 70 cm). From a height of 60 cm above the upper surface of the container, 1.5 ml of the test drug solution was sprayed using a spray gun (a spraying pressure of 0.42 kg/cm^2). Thirty seconds after spraying, the container was taken out from the test chamber, and after 2 minutes, 5 minutes and 15 minutes, the number of knocked-down insects was counted to obtain a knockdown rate. The knockdown rate was calculated by the following equation.
as §1

| Compound | pest or weed control at 0.1 % strength [1] [%] | pest or weed control at 500 ppm [2] [%] | pest or weed control at 0.1 % strength [3] [%] |
| --- | --- | --- | --- |
| O=C(NCC1CCOC1)c1cc(COCc2c(F)cccc2F)on1 (stereo not drawn) [(275), N-(tetrahydrofuran-3-ylmethyl)-5-(2,6-difluorobenzyloxymethyl)isoxazole-3-carboxamide] | ≥ 80 | ≥ 90 |  |
| O=C(NCC1CCOC1)c1cc(Cc2cccs2)on1 (stereo not drawn) [(308), N-(tetrahydrofuran-3-ylmethyl)-5-(2-thienylmethyl)isoxazole-3-carboxamide] | ≥ 80 | ≥ 90 |  |
| CC1(C)CC(NC(=O)c2cc(COCc3ccccc3)on2)CCO1 (stereo not drawn) [(335), N-(2,2-dimethyltetrahydropyran-4-yl)-5-benzyloxymethylisoxazole-3-carboxamide] | ≥ 80 | ≥ 90 |  |
| O=C(NCC1CCOC1)c1cc(COc2ccc3c(c2)CCCC3)on1 (stereo not drawn) [(239), N-(tetrahydrofuran-3-ylmethyl)-5-(5,6,7,8-tetrahydronaphthalen-2-yl)oxymethylisoxazole-3-carboxamide] | ≥ 80 |  | ≥ 80 |
| O=C(NCC1CCOC1)c1noc(COCc2ccc3ccccc3c2)c1CF (stereo not drawn) [(211), N-(tetrahydrofuran-3-ylmethyl)-4-fluoromethyl-5-(2-naphthylmethoxymethyl)isoxazole-3-carboxamide] | ≥ 80 |  | ≥ 80 |
| O=C(NCC1CCOC1)c1cc(COCc2cccc(F)c2)on1 (stereo not drawn) [(74)] | ≥ 80 |  | ≥ 80 |
| O=C(NCC1CCOC1)c1cc(COc2ccc(F)cc2)on1 (stereo not drawn) [(184)] | ≥ 80 |  | ≥ 80 |
| CSc1cccc(COCc2cc(C(=O)NCC3CCOC3)no2)c1 (stereo not drawn) [(88), N-(tetrahydrofuran-3-ylmethyl)-5-(3-methylthiobenzyloxymethyl)isoxazole-3-carboxamide] | ≥ 80 |  | ≥ 80 |
| O=C(NCC1CCOC1)c1noc(COCc2ccc3ccccc3c2)c1F (stereo not drawn) [(255), N-(tetrahydrofuran-3-ylmethyl)-5-(2-naphthylmethoxymethyl)-4-fluoroisoxazole-3-carboxamide] | ≥ 80 |  | ≥ 80 |
| O=C(NCC1CCOC1)c1cc(COc2cccc(Cl)c2)on1 (stereo not drawn) [(178), N-(tetrahydrofuran-3-ylmethyl)-5-(3-chlorophenoxymethyl)isoxazole-3-carboxamide] | ≥ 80 |  | ≥ 80 |
| CC(O)c1c(C(=O)NCC2CCOC2)noc1COCc1ccccc1 (stereo not drawn) [(175), N-(tetrahydrofuran-3-ylmethyl)-[5-benzyloxymethyl-4-(1-hydroxyethyl)]isoxazole-3-carboxamide] | ≥ 80 |  | ≥ 80 |
| Cc1ccc(Cc2cc(C(=O)NCC3CCOC3)no2)cc1 (stereo not drawn) [(329), N-(tetrahydrofuran-3-ylmethyl)-5-(4-methylbenzyl)isoxazole-3-carboxamide] | ≥ 80 |  | ≥ 80 |
| COc1cccc(Cc2cc(C(=O)NCC3CCOC3)no2)c1 (stereo not drawn) [(312), N-(tetrahydrofuran-3-ylmethyl)-5-(3-methoxybenzyl)isoxazole-3-carboxamide] | ≥ 80 |  | ≥ 80 |
| O=C(NCC1COCCO1)c1cc(CCCc2ccc3ccccc3c2)on1 (stereo not drawn) [(230), N-(1,4-dioxan-2-ylmethyl)-5-[3-(2-naphthyl)propyl]isoxazole-3-carboxamide] | ≥ 80 |  | ≥ 80 |
| COc1ccccc1Cc1cc(C(=O)NCC2CCOC2)no1 (stereo not drawn) [(317), N-(tetrahydrofuran-3-ylmethyl)-5-(2-methoxybenzyl)isoxazole-3-carboxamide] | ≥ 80 |  | ≥ 80 |
| O=C(NCC1CCOCC1)c1cc(COCc2ccc(Cl)s2)on1 [(110), N-(tetrahydropyran-4-ylmethyl)-5-(2-chlorothiophen-5-ylmethoxymethyl)isoxazole-3-carboxamide] | ≥ 80 |  | ≥ 80 |
| COc1cccc(COCc2cc(C(=O)NCC3CCOCC3)no2)c1 [(85), N-(tetrahydropyran-4-ylmethyl)-5-(3-methoxybenzyloxymethyl) isoxazole-3-carboxamide] | ≥ 80 |  | ≥ 80 |

| Compound | pest or weed control at 0.1 % strength [1] [%] | pest or weed control at 500 ppm [2] [%] | pest or weed control at 0.1 % strength [3] [%] |
| --- | --- | --- | --- |
| Cc1cccc(Cc2cc(C(=O)NCC3CCOC3)no2)c1 (stereo not drawn) [(328), N-(tetrahydrofuran-3-ylmethyl)-5-(3-methylbenzyl)isoxazole-3-carboxamide] | ≥ 80 |  | ≥ 80 |
| O=C(NCC1CCOC1)c1cc(COCc2ccc(F)c(Cl)c2)on1 (stereo not drawn) [(261), N-(tetrahydrofuran-3-ylmethyl)-5-(3-chloro-4-fluorobenzyloxymethyl)isoxazole-3-carboxamide] | ≥ 80 |  | ≥ 80 |
| Cc1c(C(=O)NCC2CCOC2)noc1COCc1cccc(F)c1 (stereo not drawn) [(217), N-(tetrahydrofuran-3-ylmethyl)-5-(3-fluorobenzyloxymethyl)-4-methylisoxazole-3-carboxamide] | ≥ 80 |  | ≥ 80 |
| Cc1ccccc1COCc1cc(C(=O)NCC2CCOC2)no1 (stereo not drawn) [(226)] | ≥ 80 |  | ≥ 80 |
| O=C(NCC1CCOC1)c1cc(Cc2cccc(-c3ccccc3)c2)on1 (stereo not drawn) [(327)] | ≥ 80 |  | ≥ 80 |
| CC(O)c1c(C(=O)NCC2CCOC2)noc1COCc1ccc2ccccc2c1 (stereo not drawn) [(210), N-(tetrahydrofuran-3-ylmethyl)-1-hydroxyethyl-5-(2-naphthylmethoxymethyl)isoxazole-3-carboxamide] | ≥ 80 |  | ≥ 80 |
| O=C(NCC1CCOC1)c1cc(COCc2ccc(F)cc2)on1 (stereo not drawn) [(89), N-(tetrahydrofuran-3-ylmethyl)-5-(4-fluorobenzyloxymethyl)isoxazole-3-carboxamide] | ≥ 80 |  | ≥ 80 |
| O=C(NCC1CCOC1)c1noc(COCc2ccccc2)c1CO (stereo not drawn) [(174), N-(tetrahydrofuran-3-ylmethyl)-(5-benzyloxymethyl-4-hydroxymethyl)isoxazole-3-carboxamide] | ≥ 80 |  | ≥ 80 |
| O=C(NCC1CCOC1)c1cc(COc2ccc(Br)cc2)on1 (stereo not drawn) [(186), N-(tetrahydrofuran-3-ylmethyl)-5-(4-bromophenoxymethyl)isoxazole-3-carboxamide] | ≥ 80 |  | ≥ 80 |
| CC(F)c1c(C(=O)NCC2CCOC2)noc1COCc1ccccc1 (stereo not drawn) [(172), N-(tetrahydrofuran-3-ylmethyl)-[5-benzyloxymethyl-4-(1-fluoroethyl)]isoxazole-3-carboxamide] | ≥ 80 |  | ≥ 80 |
| O=C(NCC1CCOCC1)c1cc(COCc2cccc(F)c2)on1 [(75), N-(tetrahydropyran-4-ylmethyl)-5-(3-fluorobenzyloxymethyl)isoxazole-3-carboxamide] | ≥ 80 |  | ≥ 80 |
| O=C(NCC1CCOC1)c1cc(CSCc2ccc3ccccc3c2)on1 (stereo not drawn) [(253)] | ≥ 80 |  | ≥ 80 |
| O=C(NCC1CCOC1)c1cc(CCCc2ccc3ccccc3c2)on1 (stereo not drawn) [(228), N-(tetrahydrofuran-3-ylmethyl)-5-[3-(2-naphthyl)propyl]isoxazole-3-carboxamide] | ≥ 80 |  | ≥ 80 |
| O=C(NCC1CCOC1)c1cc(COCCCc2ccccc2)on1 (stereo not drawn) [(133), N-(tetrahydrofuran-3-ylmethyl)-5-(3-phenylpropoxymethyl)isoxazole-3-carboxamide] | ≥ 80 |  | ≥ 80 |
| O=C(NCC1CCOC1)c1cc(COCc2cc3ccccc3cc2F)on1 (stereo not drawn) [(257), N-(tetrahydrofuran-3-ylmethyl)-5-(3-fluoro-2-naphthylmethoxymethyl)isoxazole-3-carboxamide] | ≥ 80 |  | ≥ 80 |
| COc1ccc(COCc2cc(C(=O)NCC3CCOC3)no2)cc1F (stereo not drawn) [(277), N-(tetrahydrofuran-3-ylmethyl)-5-(3-fluoro-4-methoxybenzyloxymethyl)isoxazole-3-carboxamide] | ≥ 80 |  | ≥ 80 |
